Experimental data from patent US20250161278A1, “CBL-B INHIBITOR, COMPOSITIONS COMPRISING A CBL-B INHIBITOR IN A METHOD OF TREATING A DISEASE ASSOCIATED WITH CELL PROLIFERATION” (HOTSPOT THERAPEUTICS, INC., priority 2022, published 2025).

Legend:
H22 tumor cells = experiment: Subcutaneous H22 murine liver cancer model, tumor growth inhibition; assay type: in vivo, mouse; settings: for TGI (%): H22 s.c., female BALB/c mice
Description: The objective of this pharmacology study was to evaluate the anti-tumor growth efficacy of Compound 85 in the treatment of the subcutaneous H22 murine liver cancer model in female BALB/c mice. Compound 85 test particles were delivered via PO when the average tumor volume reached approximately 80 mm^3. […] Tumor volumes and body weight were measured three times per week after the initiation of treatment.
The H22 tumor cells were maintained in vitro with RPMI-1640 medium supplemented with 10% fetal bovine serum at 37° C. in an atmosphere of 5% CO2. Cells in the exponential growth phase were harvested and quantified by cell counter before tumor inoculation.
Each mouse was inoculated subcutaneously in the right front flank region with H22 tumor cells (1×10e6) in 0.1 ml of PBS for tumor development.
The randomization started when the mean tumor size reaches approximately 79.89 mm^A3. […] Randomization was performed based on “Matched distribution” method/“Stratified” method (Study Director™ software, version 3.1.399.19)/randomized block design. The date of randomization was denoted as day 0.
(§1) After tumor inoculation, the animals were checked daily for morbidity and mortality. During routine monitoring, the animals were checked for any effects of tumor growth and treatments on behavior such as mobility, food and water consumption, body weight gain/loss (Body weights were measured thrice per week after randomization), eye/hair matting and any other abnormalities. Mortality and observed clinical signs were recorded for individual animals in detail.
(§2) Tumor volumes were measured three times per week after randomization in two dimensions using a caliper, and the volume was expressed in mm3 using the formula: V=(L×W×W)/2, where V is tumor volume, L is tumor length (the longest tumor dimension) and W is tumor width (the longest tumor dimension perpendicular to L). Dosing, as well as tumor and body weight measurements, were conducted in a Laminar Flow Cabinet.
Tumor growth inhibition (TGI): TGI % is an indication of antitumor activity, expressed as: TGI (%)=100×(1−T/C). T and C are the mean tumor volume (or weight) of the treated and control groups on a given day.
The treatment was performed for 21 days and the study was terminated on day 20 post dosing initiation.

CT26 tumor cells [1] = experiment: Subcutaneous CT26 murine colorectal cancer model (Example 5), tumor growth inhibition; assay type: in vivo, mouse; settings: CT26 s.c., female BALB/c mice
Description: (§3) The objective of this study was to evaluate the in vivo anti-tumor efficacy of Compound 85 in the subcutaneous CT26 murine colorectal cancer model in female BALB/c mice. Compound 85 test particle was delivered via PO when tumors reached 80 mm^3. The compound was assessed at six different dose levels (3 mpk, l0 mpk, 30 mpk for BID and 6 mpk, 20 mpk and 60 mpk for QD). Tumor volumes and body weight were measured twice per week after the initiation of treatment. Compound 85 level was assessed in the plasma and tumor at the end of the study.
The CT26 tumor cells were maintained in vitro with RPMI-1640 medium supplemented with 10% fetal bovine serum at 37° C. in an atmosphere of 5% CO2. The cells in exponential growth phase were harvested and quantitated by cell counter before tumor inoculation.
Each mouse was inoculated subcutaneously in the right lower flank region with CT26 tumor cells (5×10^5) in 0.1 ml of PBS.
The randomization started when the mean tumor size reaches approximately 80.7 mm^3. In total, 80 mice were enrolled in the study and randomly allocated into 8 study groups, with 10 mice per group. Randomization was performed based on the “Matched distribution” method (Study Director™ software, version 3.1.399.19). The date of randomization was denoted as day 0.
as §1, with “weights would be” for “weights were”, “measured twice” for “measured thrice”
as §2, with “twice” for “three times”, “Dosing” for “Dosing,”, “measurements” for “measurements,”

CT26 tumor cells [2] = experiment: Subcutaneous CT26 murine colorectal cancer model (Example 6), tumor growth inhibition; assay type: in vivo, mouse; settings: day 13, CT26 s.c., female BALB/c mice
Description: The objective of this study was to evaluate preclinically the in vivo dose of test compounds in the treatment of the subcutaneous CT26 murine colorectal cancer model in female BALB/c mice.
The CT26 tumor cells were maintained in vitro with RPMI-1640 medium supplemented with 10% fetal bovine serum at 37° C. in an atmosphere of 5% CO2 in air. The cells in exponential growth phase was harvested and quantitated by cell counter before tumor inoculation.
Each mouse was inoculated subcutaneously in the right lower flank region with CT26 tumor cells (5×10^5) in 0.1 ml of PBS for tumor development.
The randomization started when the mean tumor size reaches approximately 89.91 mm^3. Totally 80 mice were enrolled in the study and randomly allocated to 8 study groups, with 10 mice per group. Randomization was performed based on “Matched distribution” method (Study Director™ software, version 3.1.399.19). The date of randomization was denoted as day 0 (Jul. 8, 2021).
as §1, with “weights would be” for “weights were”, “measured twice” for “measured thrice”
as §2, with “twice” for “three times”, “Dosing” for “Dosing,”, “measurements” for “measurements,”
Tumor growth inhibition (TGI): TGI % is an indication of antitumor activity, and expressed as: TGI (%)=100×(1−T/C). T and C are the mean tumor volume (or weight) of the treated and control groups, respectively, on a given day.
The treatment was performed for 14 days. There was no extension of the treatment, the study was terminated on Day 13 post dosing initiation.
To compare tumor volumes of different groups at a pre-specified day, Bartlett's test was used to check the assumption of homogeneity of variance across all groups. When the p-value of Bartlett's test was >=0.05, we ran one-way ANOVA to test overall equality of means across all groups. If the p-value of the one-way ANOVA was <0.05, post hoc testing was performed by running Tukey's HSD (honest significant difference) tests for all pairwise comparisons, and Dunnett's tests for comparing each treatment group with the vehicle group. […]

[3] = Body weight and mortality monitoring in CT26 model (Example 5); assay type: in vivo
Description: as §3
as §1, with “weights would be” for “weights were”, “measured twice” for “measured thrice”
The body weights and tumor volumes were measured by using Study Director™ software (version 3.1.399.19).

C[C@H]1CCCN(Cc2cc(C(F)(F)F)c3cn(-c4cccc(C5(Cc6nncn6C)COC5)c4)c(=O)n3c2)C1 [Compound 29]
TGI (%) (H22 tumor cells; 60 mpk BID p.o.): 63.97% | TGI(%) on Day 18 (CT26 tumor cells [1]; 30 mpk BID p.o.): 17.3% | TGI (%) (CT26 tumor cells [2]; 30 mg/kg BID p.o.): 10.78% | TGI (%) (CT26 tumor cells [2]; 60 mg/kg BID p.o.): 41.76% | TGI (%) (CT26 tumor cells [2]; 100 mg/kg BID p.o.): 50.83%

C[C@H]1CCCN(Cc2cc(C(F)(F)F)c3cn(-c4cncc([C@H](c5nncn5C)C5CCC5)c4)c(=O)n3c2)C1 [Compound 85]
loss of average body weight ([3]; day 3, 30 mpk BID p.o.): less than 5% | loss of average body weight ([3]; day 3, 60 mpk QD p.o.): less than 5% | mortality ([3]; mouse, in vivo): No mortality was reported | TGI (%) (H22 tumor cells; 2 mpk QD p.o.): 19.56% | TGI (%) (H22 tumor cells; 10 mpk QD p.o.): 41.21% | TGI (%) (H22 tumor cells; 20 mpk QD p.o.): 68.54% | TGI (%) (H22 tumor cells; 40 mpk QD p.o.): 64.65% | minimal efficacious dose (lowest dose showing significant tumor inhibition) (H22 tumor cells; QD p.o., single agent): 6 mpk | maximum TGI (H22 tumor cells; high doses, 20 mpk or 40 mpk QD): ~65% | TGI(%) on Day 18 (CT26 tumor cells [1]; 3 mpk BID p.o.): 18.7% | TGI(%) on Day 18 (CT26 tumor cells [1]; 6 mpk QD p.o.): 3.8% | TGI(%) on Day 18 (CT26 tumor cells [1]; 10 mpk BID p.o.): 24.4% | TGI(%) on Day 18 (CT26 tumor cells [1]; 20 mpk QD p.o.): 22.2% | TGI(%) on Day 18 (CT26 tumor cells [1]; 30 mpk BID p.o.): 37.9% | TGI(%) on Day 18 (CT26 tumor cells [1]; 60 mpk QD p.o.): 33.9% | TGI (%) (CT26 tumor cells [2]; 30 mg/kg BID p.o.): 43.02%
